Assay results reported in patent US10681909B2, “Herbicidal triazoles” (FMC Corporation, priority 2014, dated 2020).

Key:
[1] = system: pigweed; experiment: Test A preemergence; type: in vivo, Amaranthus retroflexus; conditions: 0 to 100 scale (0 no effect, 100 complete control)
Source text: (§1) Seeds of plant species selected from barnyardgrass (Echinochloa crus-galli), crabgrass, large (large crabgrass, Digitaria sanguinalis), kochia (Kochia scoparia), ragweed (common ragweed, Ambrosia elatior), foxtail, giant (giant foxtail, Setaria faberii), morningglory (Ipomoea spp.), pigweed (Amaranthus retroflexus), velvetleaf (Abutilon theophrasti), ryegrass, Italian (Italian ryegrass, Lolium multiflorum), wheat (Triticum aestivum), and corn (Zea mays) were planted into a blend of loam soil and sand and treated preemergence with a directed soil spray using test chemicals formulated in a non-phytotoxic solvent mixture which included a surfactant. At the same time, plants selected from these crop and weed species and also blackgrass (Alopecurus myosuroides), and galium (catchweed bedstraw, Galium aparine), were planted in pots containing the same blend of loam soil and sand and treated with postemergence applications of test chemicals formulated in the same manner. Plants ranged in height from 2 to 10 cm and were in the one- to two-leaf stage for the postemergence treatment. […] A dash (-) response means no test result.

[2] = system: barnyardgrass; experiment: Test A postemergence; type: in vivo, Echinochloa crus-galli; conditions: 0 to 100 scale (0 no effect, 100 complete control), approx. 10 d
Source text: as §1

[3] = system: velvetleaf; experiment: Test A preemergence; type: in vivo, Abutilon theophrasti; conditions: 0 to 100 scale (0 no effect, 100 complete control)
Source text: as §1

[4] = system: barnyardgrass; experiment: Test B flooded paddy test; type: in vivo, Echinochloa crus-galli; conditions: 125 g ai/ha, applied to paddy water at 2-leaf stage, visual rating after 13 to 15 d, scale 0 (no effect) to 100 (complete control)
Source text: (§2) At time of treatment, test pots were flooded to 3 cm above the soil surface, treated by application of test compounds directly to the paddy water, and then maintained at that water depth for the duration of the test. Treated plants and controls were maintained in a greenhouse for 13 to 15 d, after which time all species were compared to controls and visually evaluated. […] A dash (-) response means no test result.

[5] = system: foxtail, giant; experiment: Test A preemergence; type: in vivo, Setaria faberii; conditions: 0 to 100 scale (0 no effect, 100 complete control)
Source text: as §1

[6] = system: foxtail, giant; experiment: Test A postemergence; type: in vivo, Setaria faberii; conditions: 0 to 100 scale (0 no effect, 100 complete control), approx. 10 d
Source text: as §1

[7] = system: ducksalad; experiment: Test B flooded paddy test; type: in vivo, Heteranthera limosa; conditions: 125 g ai/ha, applied to paddy water at 2-leaf stage, visual rating after 13 to 15 d, scale 0 (no effect) to 100 (complete control)
Source text: as §2

[8] = system: sedge, umbrella; experiment: Test B flooded paddy test; type: in vivo, Cyperus difformis; conditions: 125 g ai/ha, applied to paddy water at 2-leaf stage, visual rating after 13 to 15 d, scale 0 (no effect) to 100 (complete control)
Source text: as §2

[9] = system: wheat; experiment: Test A postemergence; type: in vivo, Triticum aestivum; conditions: 0 to 100 scale (0 no effect, 100 complete control), approx. 10 d
Source text: as §1

[10] = system: crabgrass, large; experiment: Test A postemergence; type: in vivo, Digitaria sanguinalis; conditions: 0 to 100 scale (0 no effect, 100 complete control), approx. 10 d
Source text: as §1

[11] = system: wheat; experiment: Test A preemergence; type: in vivo, Triticum aestivum; conditions: 0 to 100 scale (0 no effect, 100 complete control)
Source text: as §1

[12] = system: rice; experiment: Test B flooded paddy test; type: in vivo, Oryza sativa; conditions: 125 g ai/ha, applied to paddy water at 2-leaf stage, visual rating after 13 to 15 d, scale 0 (no effect) to 100 (complete control)
Source text: as §2

[13] = system: barnyardgrass; experiment: Test A preemergence; type: in vivo, Echinochloa crus-galli; conditions: 0 to 100 scale (0 no effect, 100 complete control)
Source text: as §1

[14] = system: morningglory; experiment: Test A postemergence; type: in vivo, Ipomoea spp.; conditions: 0 to 100 scale (0 no effect, 100 complete control), approx. 10 d
Source text: as §1

[15] = system: pigweed; experiment: Test A postemergence; type: in vivo, Amaranthus retroflexus; conditions: 0 to 100 scale (0 no effect, 100 complete control), approx. 10 d
Source text: as §1

[16] = system: crabgrass, large; experiment: Test A preemergence; type: in vivo, Digitaria sanguinalis; conditions: 0 to 100 scale (0 no effect, 100 complete control)
Source text: as §1

[17] = system: morningglory; experiment: Test A preemergence; type: in vivo, Ipomoea spp.; conditions: 0 to 100 scale (0 no effect, 100 complete control)
Source text: as §1

[18] = system: corn; experiment: Test A postemergence; type: in vivo, Zea mays; conditions: 0 to 100 scale (0 no effect, 100 complete control), approx. 10 d
Source text: as §1

[19] = system: velvetleaf; experiment: Test A postemergence; type: in vivo, Abutilon theophrasti; conditions: 0 to 100 scale (0 no effect, 100 complete control), approx. 10 d
Source text: as §1

[20] = system: corn; experiment: Test A preemergence; type: in vivo, Zea mays; conditions: 0 to 100 scale (0 no effect, 100 complete control)
Source text: as §1

Compound	Plant response rating, Pigweed ([1]; 125 g ai/ha)	Plant response rating, Pigweed ([1]; 500 g ai/ha, approx. 10 d)	Plant response rating, Barnyardgrass ([2]; 125 g ai/ha)	Plant response rating, Barnyardgrass ([2]; 500 g ai/ha)	Plant response rating, Velvetleaf ([3]; 125 g ai/ha)	Plant response rating, Velvetleaf ([3]; 500 g ai/ha, approx. 10 d)	Plant response rating, Barnyardgrass, Flood [4]	Plant response rating, Foxtail, Giant ([5]; 125 g ai/ha)	Plant response rating, Foxtail, Giant ([5]; 500 g ai/ha, approx. 10 d)	Plant response rating, Foxtail, Giant ([6]; 125 g ai/ha)	Plant response rating, Foxtail, Giant ([6]; 500 g ai/ha)	Plant response rating, Ducksalad, Flood [7]	Plant response rating, Sedge, Umbrella, Flood [8]	Plant response rating, Wheat ([9]; 125 g ai/ha)	Plant response rating, Wheat ([9]; 500 g ai/ha)	Plant response rating, Crabgrass, Large ([10]; 125 g ai/ha)	Plant response rating, Crabgrass, Large ([10]; 500 g ai/ha)	Plant response rating, Wheat ([11]; 125 g ai/ha)	Plant response rating, Wheat ([11]; 500 g ai/ha, approx. 10 d)	Plant response rating, Rice, Flood [12]	further results
CCCOc1nc(-c2ccc(F)cc2)nn1Cc1ccnc(C(F)(F)F)c1 [Compound 10]	100	100	40	80	0	30	45	100	100	50	90	70	80	10	10	40	90	0	20	20	Plant response rating, Barnyardgrass ([13]; 125 g ai/ha): 30; Plant response rating, Barnyardgrass ([13]; 500 g ai/ha, approx. 10 d): 100; Plant response rating, Morningglory ([14]; 125 g ai/ha): 50; Plant response rating, Morningglory ([14]; 500 g ai/ha): 90; Plant response rating, Pigweed ([15]; 125 g ai/ha): 100; Plant response rating, Pigweed ([15]; 500 g ai/ha): 100; Plant response rating, Crabgrass, Large ([16]; 125 g ai/ha): 100; Plant response rating, Crabgrass, Large ([16]; 500 g ai/ha, approx. 10 d): 100; Plant response rating, Morningglory ([17]; 125 g ai/ha): 10; Plant response rating, Morningglory ([17]; 500 g ai/ha, approx. 10 d): 20; Plant response rating, Corn ([18]; 125 g ai/ha): 20; Plant response rating, Corn ([18]; 500 g ai/ha): 30; Plant response rating, Velvetleaf ([19]; 125 g ai/ha): 50; Plant response rating, Velvetleaf ([19]; 500 g ai/ha): 80; Plant response rating, Corn ([20]; 125 g ai/ha): 0; Plant response rating, Corn ([20]; 500 g ai/ha, approx. 10 d): 20
Cn1nc(-c2ccc(F)cc2)nc1Cc1ccnc(C(F)(F)F)c1 [Compound 13]	100	100	50	90	20	80	0	100	100	80	90	65	80	30	40	70	90	0	0	0	Plant response rating, Barnyardgrass ([13]; 125 g ai/ha): 30; Plant response rating, Barnyardgrass ([13]; 500 g ai/ha, approx. 10 d): 100; Plant response rating, Morningglory ([14]; 125 g ai/ha): 70; Plant response rating, Morningglory ([14]; 500 g ai/ha): 100; Plant response rating, Pigweed ([15]; 125 g ai/ha): 100; Plant response rating, Pigweed ([15]; 500 g ai/ha): 100; Plant response rating, Crabgrass, Large ([16]; 125 g ai/ha): 100; Plant response rating, Crabgrass, Large ([16]; 500 g ai/ha, approx. 10 d): 100; Plant response rating, Morningglory ([17]; 125 g ai/ha): 60; Plant response rating, Morningglory ([17]; 500 g ai/ha, approx. 10 d): 70; Plant response rating, Corn ([18]; 125 g ai/ha): 30; Plant response rating, Corn ([18]; 500 g ai/ha): 60; Plant response rating, Velvetleaf ([19]; 125 g ai/ha): 70; Plant response rating, Velvetleaf ([19]; 500 g ai/ha): 90; Plant response rating, Corn ([20]; 125 g ai/ha): 0; Plant response rating, Corn ([20]; 500 g ai/ha, approx. 10 d): 10
